Laboratory results reported in patent US10759777B2, “Carbazole-containing amides, carbamates, and ureas as cryptochrome modulators” (Synchronicity Pharma, Inc., priority 2014, dated 2020).

Columns and labels:
[1] = system: db/db mouse model of type II diabetes; experiment: Single dose at peak or nadir of clock gene expression, OGTT in db/db mice; assay type: in vivo
Excerpt: Mice were split into two study arms, to be dosed at either the peak or nadir of Cry1 and Bmal1 gene expression. […] Mice dosed at ZT10 were fasted beginning at 8:30 am in the same manner.
Significance was accepted when p<0.05.

[2] = Pharmacokinetic analysis in ICR mice; assay type: in vivo; conditions: mouse, 50 mg/kg P.O.
Description: Male ICR mice (weighing 30-40 g, Charles River Laboratories) were used for the experiment with n=3 mice for each experimental group (27 mice total for the study). […] Blood and liver tissue were collected at the following time points after administration: 15, 30, 60, 90 minutes, 3, 6, 12 and 24 hours. A control group of animals (TO) was also sampled. Animals were euthanized with C02 and the blood collected from the heart using cardiac puncture, transferred to an EDTA tube, and then centrifuged at 5400 rpm for 5 minutes at 4° C. The resultant plasma was frozen using dry ice and then stored at −80° C. until ready for assay. Liver tissue was removed from each animal, 0.5 g was collected in an eppendorff, frozen and submitted for pharmacokinetic measurement. […] Raw data was analyzed using WinNonLin for PK parameters (Cmax, Tmax, elimination t^1/2, MRT (mean residence time), AUC (area under the curve)−(0-last and % extrapolated).

[3] = target: isolated FAD-binding domain of human CRY1 protein (hCRY1) (Homo sapiens (Human), UniProt Q16526); experiment: Thermal shift binding assay (differential scanning fluorimetry)
Description: Binding of compounds to the isolated FAD-binding domain of human CRY1 protein (hCRY1) was determined using a differential scanning fluorimetry (‘thermal shift’) assay (Pantoliano et al. (2001) J Biomol Screening 6, 429; Niesen et al. (2007) Nature Protocols 2, 2212). The FAD-binding domain of hCRY1 (amino acid residues 1-494) with a C-terminal Myc-DDK tag (FADBD), was produced by transient transfection of HEK293T cells (Catalog # CRL-3216, American Type Culture Collection) and purified by anti-FLAG affinity chromatography (Catalog # A2220, Sigma-Aldrich). FADBD (0.5 μg per well) was incubated with dilutions of compounds in DMSO (5% DMSO final concentration in reaction) in 17.5 μl Tris-buffered saline (TBS) for 10 minutes on ice, then 2.5 μl of 8× Sypro-Orange Dye (Life Technologies) was added to each well. Triplicate wells were assayed for each compound concentration. The melting temperatures were measured in an ABI7500 quantitative PCR instrument using the melt curve mode with a thermal profile of 2 minutes at 25° C., followed by a ramp rate of 1° C./minute up to 99° C. The melting temperature for each well was determined from the first derivative of the melt curve. The change in melting temperature (ΔTm) was obtained by subtraction of the melting temperature of the FADBD in 5% DMSO alone.

Sequence of isolated FAD-binding domain of human CRY1 protein (hCRY1) (Q16526 1-494): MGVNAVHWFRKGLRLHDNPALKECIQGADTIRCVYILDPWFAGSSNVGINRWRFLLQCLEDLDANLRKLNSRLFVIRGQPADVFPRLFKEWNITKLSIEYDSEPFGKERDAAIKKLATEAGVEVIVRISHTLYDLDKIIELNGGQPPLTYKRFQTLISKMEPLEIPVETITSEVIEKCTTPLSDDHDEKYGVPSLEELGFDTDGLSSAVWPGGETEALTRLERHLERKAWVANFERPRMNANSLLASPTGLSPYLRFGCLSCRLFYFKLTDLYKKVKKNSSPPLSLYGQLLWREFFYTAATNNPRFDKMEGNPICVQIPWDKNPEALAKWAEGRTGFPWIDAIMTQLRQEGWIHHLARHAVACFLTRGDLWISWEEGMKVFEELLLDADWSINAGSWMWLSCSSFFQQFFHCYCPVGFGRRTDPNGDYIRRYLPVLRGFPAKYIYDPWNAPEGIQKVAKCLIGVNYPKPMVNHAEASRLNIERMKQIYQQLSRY

O=C1NCCN1CC(O)Cn1c2ccc(F)cc2c2cc(F)ccc21 (stereo not shown) [Compound 72, 1-(3-(3,6-difluoro-9H-carbazol-9-yl)-2-hydroxypropyl)imidazolidin-2-one]
effect on OGTT measurement, dosed at peak ([1]; 50 mg/kg PO single dose at ZT0, db/db mice): apparent effect | effect on OGTT measurement, dosed at nadir ([1]; 50 mg/kg PO single dose at ZT10, db/db mice): no effect | reduction in glucose excursion (AUC) ([1]; 50 mg/kg PO single dose at peak (ZT0), vs vehicle): 14% | % AUC extrapolated ([2]; liver): 0.85% | Tmax (hr) ([2]; liver): 0.25 − hr | Tmax (hr) ([2]; plasma): 0.25 − hr | change in melting temperature (ΔTm) of hCRY1 FADBD [3]: dose-dependent increase
